Like-named read-outs stand apart in the source and are kept apart here.
Key:
mouse sEH = target: T1, mouse sEH (Mus musculus, UniProt P34914); assay: Inhibition of recombinant mouse sEH, IC50 assay with 4-nitrophenyl-trans-2,3-epoxy-3-phenylpropyl carbonate as substrate; format: biochemical
T1 construct: made in house; host or cells: baculovirus expression system
T1 sequence (P34914 1-554): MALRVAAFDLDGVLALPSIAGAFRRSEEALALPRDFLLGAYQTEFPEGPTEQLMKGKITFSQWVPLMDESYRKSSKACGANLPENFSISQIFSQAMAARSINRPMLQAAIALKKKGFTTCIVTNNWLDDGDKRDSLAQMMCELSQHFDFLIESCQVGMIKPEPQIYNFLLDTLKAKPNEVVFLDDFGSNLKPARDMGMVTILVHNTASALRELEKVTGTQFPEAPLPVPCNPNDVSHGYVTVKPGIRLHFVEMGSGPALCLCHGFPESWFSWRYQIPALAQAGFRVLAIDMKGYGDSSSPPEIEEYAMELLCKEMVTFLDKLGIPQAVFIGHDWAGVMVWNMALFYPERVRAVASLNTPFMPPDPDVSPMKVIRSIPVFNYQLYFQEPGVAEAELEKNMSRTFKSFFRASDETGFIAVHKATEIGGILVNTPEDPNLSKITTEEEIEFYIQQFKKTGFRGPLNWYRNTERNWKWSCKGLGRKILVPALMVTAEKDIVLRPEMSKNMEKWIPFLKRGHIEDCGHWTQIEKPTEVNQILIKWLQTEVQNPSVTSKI
Method: (§1) Assays were performed in triplicate. […] The curve was generated from at least three separate runs, each in triplicate, to obtain the standard deviation (SD) given in Table 1 thru Table 4.

human sEH = target: T2, human sEH (Homo sapiens, UniProt P34913); assay: Inhibition of recombinant human sEH, IC50 assay with 4-nitrophenyl-trans-2,3-epoxy-3-phenylpropyl carbonate as substrate; format: biochemical; conditions: for IC90: 0.24 μM enzyme
T2 construct: made in house; host or cells: baculovirus expression system
T2 sequence (P34913 1-555): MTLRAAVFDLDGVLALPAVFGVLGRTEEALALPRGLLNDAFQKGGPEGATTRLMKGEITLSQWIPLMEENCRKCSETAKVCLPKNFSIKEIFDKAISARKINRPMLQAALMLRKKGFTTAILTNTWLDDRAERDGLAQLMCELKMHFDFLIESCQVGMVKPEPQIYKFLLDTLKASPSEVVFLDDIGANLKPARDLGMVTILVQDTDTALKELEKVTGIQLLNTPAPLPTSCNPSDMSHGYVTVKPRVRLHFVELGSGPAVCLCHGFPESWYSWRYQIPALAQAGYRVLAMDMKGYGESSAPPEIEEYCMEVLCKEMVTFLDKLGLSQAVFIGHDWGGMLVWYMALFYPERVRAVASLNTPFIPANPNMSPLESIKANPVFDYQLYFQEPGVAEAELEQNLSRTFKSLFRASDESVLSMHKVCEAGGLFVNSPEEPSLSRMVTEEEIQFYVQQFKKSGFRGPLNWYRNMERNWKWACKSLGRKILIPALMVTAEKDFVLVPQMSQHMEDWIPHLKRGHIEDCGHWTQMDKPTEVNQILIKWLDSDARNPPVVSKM
Method: as §1

[1] = Table 1, 0.12 μM enzyme, 5 min preincubation, pH 7.4, 30° C., [S] = 40 μM, means ± SD of three experiments, read-out: IC50 (μM) Mouse sEH
[2] = Table 1, […] enzyme, 5 min preincubation, pH 7.4, 30° C., [S] = 40 μM, means ± SD of three experiments, read-out: IC50 (μM) Human sEH
[3] = Table 1, […] enzyme, 5 min preincubation, pH 7.4, 30° C., [S] = 40 μM, means ± SD of three experiments, read-out: IC50 (μM) Mouse sEH
[4] = Table 3, […] enzyme, 5 min preincubation, pH 7.4, 30° C., means ± SD, read-out: IC50 (μM) Mouse sEH
[5] = Table 3, […] enzyme, 5 min preincubation, pH 7.4, 30° C., means ± SD, read-out: IC50 (μM) Human sEH
[6] = Table 4, […] enzyme, 5 min preincubation, pH 7.4, 30° C., means ± SD, read-out: IC50 (μM) Mouse sEH
[7] = Table 4, […] enzyme, 5 min preincubation, pH 7.4, 30° C., means ± SD, read-out: IC50 (μM) Human sEH
[8] = Table 4, 0.12 μM enzyme, 5 min preincubation, pH 7.4, 30° C., means ± SD, read-out: IC50 (μM) Mouse sEH
[9] = Table 5, 0.12 μM enzyme, 5 min preincubation, pH 7.4, 30° C., means ± SD
[10] = Table 5, […] enzyme, 5 min preincubation, pH 7.4, 30° C., means ± SD, read-out: Mouse sEH IC50
[11] = Table 5, 5 min preincubation, pH 7.4, 30° C., means ± SD
[12] = Table 5, […] enzyme, 5 min preincubation, pH 7.4, 30° C., means ± SD, read-out: Human sEH IC50
[13] = Table 9, established protocols, read-out: IC50 (μM) Mouse sEH
[14] = Table 9, established protocols, read-out: IC50 (μM) Human sEH
[15] = Tables 17a and b, read-out: IC50 (μM) Human sEH

O=C(O)CCCCCNC(=O)NC1CCCCC1 [Compound 56]
IC50 (mouse sEH; [1]): 90 ± 3 µM
IC50 (human sEH; [2]): 253 ± 8 µM

O=C(O)CCNC(=O)NC1CCCCC1 [Compound 109]
IC50 (mouse sEH; [3]): 122 ± 2 µM
IC50 (human sEH; [2]): 358 ± 2 µM

COC(=O)CNC(=O)NC1CCCCC1 [Compound 549]
IC50 (mouse sEH; [3]): 33 ± 2 µM
IC50 (human sEH; [2]): 70 ± 6 µM

O=C(O)CCCNC(=O)NC1CCCCC1 [Compound 632, 4-(3-Cyclohexyl-ureido)-butyric acid]
IC50 (mouse sEH): > 500 µM
IC50 (human sEH; [2]): > 500 µM

COC(=O)CCNC(=O)NC1CCCCC1 [Compound 635]
IC50 (mouse sEH; [3]): 2.5 ± 0.1 µM
IC50 (human sEH; [2]): 78 ± 4 µM

CCCCCNC(=O)CCCNC(=O)Nc1cccc(Cl)c1 [Compound 768, 1-(3-chlorophenyl)-3-(3-pentylaminocarbonylpropyl)urea]
IC50 (mouse sEH; [4]): 7.2 ± 0.9 µM
IC50 (human sEH; [5]): 32 ± 0.8 µM

COC(=O)CCCCCCCCCCCNC(=O)NC12CC3CC(CC(C3)C1)C2 [Compound 780, 1-(1-adamantyl)-3-(11-methoxycarbonylundecyl)urea]
IC50 (mouse sEH; [6]): 0.05 ± 0.01 µM
IC50 (human sEH; [7]): 0.1 ± 0.01 µM

C=CCOC(=O)CCCCCCCCCCCNC(=O)NC12CC3CC(CC(C3)C1)C2 [Compound 781, 1-(1-Adamantyl)-3-(11-allyloxycarbonylundecyl)urea]
IC50 (human sEH; [7]): 0.1 ± 0.01 µM

CCCOC(=O)CCCCCCCCCCCNC(=O)NC12CC3CC(CC(C3)C1)C2 [Compound 783, 1-(1-Adamantyl)-3-(11-propoxycarbonylundecyl)urea]
IC50 (human sEH; [7]): 0.1 ± 0.01 µM

CCOC(=O)CCCCCCCCCCCNC(=O)NC12CC3CC(CC(C3)C1)C2 [Compound 784, 1-(1-Adamantyl)-3-(11-ethoxycarbonylundecyl)urea]
IC50 (mouse sEH; [6]): 0.05 ± 0.01 µM
IC50 (human sEH; [7]): 0.1 ± 0.01 µM

CC(C)OC(=O)CCCCCCCCCCCNC(=O)NC12CC3CC(CC(C3)C1)C2 [Compound 785, 1-(1-Adamantyl)-3-(11-iso-propoxycarbonylundecyl)urea]
IC50 (human sEH; [7]): 0.1 ± 0.01 µM

O=C(NCCCCCCCCCCCC(=O)OCC12CC3CC(CC(C3)C1)C2)NC12CC3CC(CC(C3)C1)C2 [Compound 786, 1-(1-adamantyl)-3-(11-(1-adamantyl)methyloxycarbonylundecyl)urea]
IC50 (mouse sEH; [8]): 0.07 ± 0.01 µM
IC50 (human sEH; [7]): 0.23 ± 0.02 µM

C#CCOC(=O)CCCCCCCCCCCNC(=O)NC12CC3CC(CC(C3)C1)C2 [Compound 788, 1-(1-Adamantyl)-3-(11-propagyloxycarbonylundecyl)urea]
IC50 (human sEH; [7]): 0.1 ± 0.01 µM

CCCCCCCCCCNC(=O)NC1CCCCC1 [Compound 791, reference compound]
IC50 (mouse sEH; Table 2, […] enzyme, 5 min preincubation, pH 7.4, 30° C., means ± SD, read-out: IC50 (μM) Mouse sEH): 0.05 ± 0.01 µM
IC50 (human sEH; Table 2, […] enzyme, 5 min preincubation, pH 7.4, 30° C., means ± SD, read-out: IC50 (μM) Human sEH): 0.14 ± 0.01 µM

CCNC(=O)CCCCCCCCCCCNC(=O)NC12CC3CC(CC(C3)C1)C2 [Compound 792, 1-(1-Adamantyl)-3-(11-ethylaminocarbonylundecyl)urea]
IC50 (mouse sEH; [6]): 0.05 ± 0.01 µM
IC50 (human sEH; [7]): 0.1 ± 0.01 µM

CCCCCCC(=O)CCCNC(=O)Nc1cccc(Cl)c1 [Compound 794, 1-(3-chlorophenyl)-3-(4-oxodecyl)urea]
IC50 (mouse sEH; [4]): 0.41 ± 0.05 µM
IC50 (human sEH; [5]): 2.1 ± 0.2 µM

CCC(C)OC(=O)CCCCCCCCCCCNC(=O)NC12CC3CC(CC(C3)C1)C2 (stereo not shown) [Compound 802, 1-(1-Adamantyl)-3-(11-sec-butoxycarbonylundecyl)urea]
IC50 (human sEH; [7]): 0.1 ± 0.01 µM

CC(C)COC(=O)CCCCCCCCCCCNC(=O)NC12CC3CC(CC(C3)C1)C2 [Compound 803, 1-(1-Adamantyl)-3-(11-isobutoxycarbonylundecyl)urea]
IC50 (human sEH; [7]): 0.1 ± 0.01 µM

O=C(NCCCCCCCCCCCC(=O)OCc1ccccc1)NC12CC3CC(CC(C3)C1)C2 [Compound 804, 1-(1-Adamantyl)-3-(11-benzyloxycarbonylundecyl)urea]
IC50 (mouse sEH; [8]): 0.07 ± 0.01 µM
IC50 (human sEH; [7]): 0.13 ± 0.01 µM

CCCCCOC(=O)CCCCC(=O)NC12CC3CC(CC(C3)C1)C2 [Compound 834]
IC50 (mouse sEH; Table 8, established protocols, read-out: IC50 (μM) Mouse sEH): 0.34 ± 0.01 µM
IC50 (human sEH; Table 8, established protocols, read-out: IC50 (μM) Human sEH): 2.4 ± 0.2 µM

COC(=O)CCCCNC(=O)NC1CCCCC1 [Compound 854]
IC50 (mouse sEH; [1]): 0.13 ± 0.03 µM
IC50 (human sEH; [2]): 5 ± 0.6 µM

CCOC(=O)COC(=O)CCCNC(=O)NC12CC3CC(CC(C3)C1)C2 [Compound 857]
IC90 (mouse sEH; [9]): 110 ± 10 nM
IC50 (mouse sEH; [10]): 0.05 ± 0.01 µM
IC90 (human sEH; [11]): 9 ± 2 µM
IC50 (human sEH; [12]): 0.39 ± 0.01 µM

CCOC(=O)CCCOC(=O)CCCNC(=O)NC12CC3CC(CC(C3)C1)C2 [Compound 858]
IC90 (mouse sEH; [9]): 160 ± 10 nM
IC50 (mouse sEH; [10]): 0.05 ± 0.01 µM
IC90 (human sEH; [11]): 5 ± 0.1 µM
IC50 (human sEH; [12]): 0.12 ± 0.01 µM

CCCCCOC(=O)c1cccc(NC(=O)NC23CC4CC(CC(C4)C2)C3)c1 [Compound 859]
IC50 (mouse sEH; [13]): 0.05 ± 0.01 µM
IC50 (human sEH; [14]): 0.1 ± 0.01 µM

CCCCCOC(=O)c1ccc(NC(=O)NC23CC4CC(CC(C4)C2)C3)cc1 [Compound 860]
IC50 (mouse sEH; [13]): 0.05 ± 0.01 µM
IC50 (human sEH; [14]): 0.1 ± 0.01 µM

CCCCCOC(=O)C1CCCC(NC(=O)NC23CC4CC(CC(C4)C2)C3)C1 (stereo not shown) [Compound 861]
IC50 (mouse sEH; [13]): 0.05 ± 0.01 µM
IC50 (human sEH; read-out: IC50 (μM) Human sEH): 0.1 ± 0.01 µM

CCCCCOC(=O)C1CCC(NC(=O)NC23CC4CC(CC(C4)C2)C3)CC1 (stereo not shown) [Compound 863]
IC50 (mouse sEH; [13]): 0.05 ± 0.01 µM
IC50 (human sEH; [14]): 0.12 ± 0.01 µM

CCOC(=O)CCOC(=O)CCCNC(=O)NC12CC3CC(CC(C3)C1)C2 [Compound 876]
IC90 (mouse sEH; [9]): 630 ± 20 nM
IC50 (mouse sEH; [10]): 0.05 ± 0.01 µM
IC90 (human sEH; [11]): 9 ± 2 µM
IC50 (human sEH; [12]): 0.54 ± 0.05 µM

CCOC(=O)CCCCOC(=O)CCCNC(=O)NC12CC3CC(CC(C3)C1)C2 [Compound 877]
IC90 (mouse sEH; [9]): 100 ± 10 nM
IC50 (mouse sEH; [10]): 0.05 ± 0.01 µM
IC90 (human sEH; [11]): 1.5 ± 0.1 µM
IC50 (human sEH; [12]): 0.13 ± 0.01 µM

CCOC(=O)CCCCCCOC(=O)CCCNC(=O)NC12CC3CC(CC(C3)C1)C2 [Compound 878]
IC90 (mouse sEH; [9]): 130 ± 10 nM
IC50 (mouse sEH; [10]): 0.05 ± 0.01 µM
IC90 (human sEH; [11]): 0.81 ± 0.01 µM
IC50 (human sEH; [12]): 0.12 ± 0.01 µM

O=C(CCCCc1ccccc1)NC12CC3CC(CC(C3)C1)C2 [Compound 991]
IC50 (human sEH; [15]): 0.99 ± 0.01 µM

CCCCCCCCCCCCNC(=O)NC1CCN(c2ccc(S(=O)(=O)C(C)C)c3nonc23)C1 (stereo not shown) [Compound 996]
IC50 (human sEH; [15]): 0.12 ± 0.01 µM

CCOC(=O)c1ccc(C(C#N)OC(=O)C2CCCC(NC(=O)NC34CC5CC(CC(C5)C3)C4)C2)cc1 (stereo not shown) [Compound 1009]
IC50 (human sEH; [14]): 0.1 ± 0.01 µM

— US20050164951A1, “Inhibitors for the soluble epoxide hydrolase” (The Regents of the University of California, priority 2003, published 2005)
